Measured values reported in US10350309B2, “Methods of preparing ophthalmic formulations and uses of same” (Cognoptix, Inc., priority 2013, dated 2019).

Tests used:
[1] = Microscopic examination of mixture after ball milling agitation (particle size, uniformity); format: physicochemical; details: heavy mineral oil, ball milling with 5 mm grinding media beads
Method: Microscopic examination of mixtures after ball milling can be used to assess uniformity and to estimate the particle size of the fluorescent molecular rotor compounds. Microscopic examination of the mixtures containing Compound 11 were performed using a compound optical microscope with a calibrated eyepiece micrometer, or reticle. For example, the eyepiece micrometer, reticle, can be aligned and calibrated with the stage micrometer by aligning the zero line of the reticle with the zero line of the stage micrometer, and the ratios between the micrometers or scales can be used to determine sizes and distances.

[2] = HPLC analysis of concentration and degradation of Compound 11 in mineral oil mixtures after ball milling agitation; format: physicochemical
Method: The following HPLC method was used to analyze whether the concentration of fluorescent molecular rotor compounds in mixtures of mineral oil and Compound 11 was consistent with the expected concentration of the mixture. The HPLC analysis was also used to evaluate degradation of Compound 11 in the mixture. The HPLC instrument used was a Waters 2695 Separation Module, or equivalent containing a pump capable of delivering a gradient flow rate of 1.0 mL/min or equivalent and a Waters 2487 Multiwavelength Detector, or dual wavelength detector capable of detection at 215 nm and 320 nm, or equivalent. The column used was a Waters Deltapak C18 column, 5 μm, 3.9×150 mm, (Waters Corp., Milford, Mass., Catalog No.: WAT011793). The flow rate was 1.0 mL/min with detection at a wavelength of 215 nm and a column temperature of 25° C. The injection volume used for the concentration sample evaluation was 20 μL and for the related substances sample evaluation was 50 μL. The mobile phases were A: 0.1% trifluoroacetic acid in water, C: methanol, and D: ethanol, and the gradient program shown in Table 2 was used for the HPLC method.
In a mixture sample compared to a standard sample, increased relative peak area of the related substance peak (RT of 3.8 min, Table 3) compared to the peak area of Compound 11 (RT of 8.5 min, Table 3) would indicate degradation of Compound 11. The concentration in the mixture sample of Compound 11 was determined by analyzing the HPLC peak with a retention time of 8.5 min (Table 3) compared to a standard sample of Compound 11.
However, the concentration of the mixture of Compound 11 and heavy mineral oil after ball milling agitation with YTZ® grinding media beads of an average diameter of 0.5 mm was determined by HPLC (RT of 8.5 min, Table 3) to be 4.75 mg/g as compared to an expected concentration of 48.12 mg/g (504.3 mg/10.48 g, mineral oil and Compound 11). […] The concentration as measured by HPLC of the mixture of Compound 11 and heavy mineral oil after ball milling agitation with beads of an average diameter of 5 mm was 44.9 mg/g as compared to an expected concentration of 47.98 mg/g (504.8 mg/10.52 g, mineral oil and Compound 11), which was within the acceptable range.

particle diameter by microscopic examination [1]: approximately 5 microns | concentration of the mixture determined by HPLC ([2]; heavy mineral oil, ball milling with YTZ beads of average diameter 0.5 mm, expected 48.12 mg/g): 4.75 mg/g | concentration of the mixture measured by HPLC ([2]; heavy mineral oil, ball milling with beads of average diameter 5 mm, expected 47.98 mg/g): 44.9 mg/g | degradation of Compound 11 based on changes in the related substance peak (RT 3.8 min) ([2]; mixture in heavy mineral oil, after ball milling agitation, HPLC): no significant degradation | degradation of Compound 11 as analyzed by HPLC ([2]; mixture in heavy mineral oil, ball milling agitation with YTZ 5 mm beads): without degradation
Structure (SMILES): COCCOCCOCCOC(=O)/C(C#N)=C/c1ccc2cc(N3CCCCC3)ccc2c1 [Compound 11]
